Consider 120 compounds from a melting point compilation (Tetko et al.).

Structures are written as SMILES.

`CCCOc1cc(C=O)ccc1OC`: the melting point (usually the temperature of the solid-liquid transition) was in the range of 35 to 37 °C.

`O=C1C2CC1CN(Cc1ccccc1)C2` came in with a melting point of 64 to 66 °C.

For `O=C(CCCl)NC(=O)NCc1ccccc1`, the melting point was in the range of 117 to 119 °C.

`CCOC(=O)c1c(-c2ccccc2)oc2ccc(O)cc12` displayed a melting point of 152 to 154 °C.

On to `CC(C)(C#N)S(=O)(=O)c1ccc(Br)cc1`, for which the melting point was 118 to 120 °C.

As to `O=C(O)C1C2C3CC4C5CC(C42)C1C53` (stereo not given), the melting point lay within 101 to 103 °C.

As to `COc1cccc(C(=O)NN2C(=O)CSC2=S)c1`, the melting point was 156 to 158 °C.

For `Nc1[nH]nc(CCC2CCCCC2)c1-c1ccc(Br)cc1`, the melting point lay in the range of 168 to 170 °C.

As for `CCOc1ccc([N+](=O)[O-])cc1CO`, the melting point lay within 102 to 104 °C.

In turn, `N#CC(=O)c1ccc(Cl)cc1` showed a melting point of 41 to 43 °C.

Consider `O=C1CS/C(=C/C(=O)c2ccco2)N1`, for which the melting point lay within 251 to 253 °C.

The compound `Cn1ccc(N2CCC(N)C2=O)n1` (stereo not given) returned a melting point of 141 to 143 °C.

On to `N#CC(c1ccccc1)(c1ccc(F)cc1)c1ccc(F)cc1`, for which the melting point is 74 to 76 °C.

`O=C(O)c1nccnc1C(=O)Nc1ccc(Cl)cc1`: the melting point lay within 178 to 180 °C.

Regarding `ClCc1nc(Cl)c2cnn(-c3ccccc3)c2n1`, the melting point lay within 112 to 114 °C.

Turning to `NS(=O)(=O)c1ccc2c(c1)CCCC2`, the melting point lay in the range of 135 to 137 °C.

`COc1ccc(N(C(C)=O)c2nc(C=O)cs2)cc1` gave a melting point of 180 to 183 °C.

The compound `Nc1cccc(C(=O)Nc2ccccn2)c1` came in with a melting point of 111 to 113 °C.

The compound `COC(=O)C(C)Cn1cc(Br)cn1` (stereo not given) showed a melting point of 43 to 45 °C.

`Cc1cc(NC(=O)CCl)n(C)n1`: the melting point lay in the range of 115 to 117 °C.

In turn, `CC(C)COC(=O)N1CCC(C(=O)O)CC1` had a melting point of 69 to 71 °C.

Compound `COc1cccc(/C=C/C(=O)O)c1OC(F)F` came in with a melting point of 208 to 210 °C.

Turning to `O=C(O)C(=O)c1cnn(-c2ccccc2)c1`, the melting point was in the range of 168 to 170 °C.

Turning to `O=C1COc2cc([N+](=O)[O-])c(F)cc2N1`, the melting point was in the range of 221 to 223 °C.

The compound `Nc1ccc(Cl)c(C(=O)NCc2ccccc2F)c1` registered a melting point of 95 to 97 °C.

The compound `O=C(O)CCNS(=O)(=O)C=Cc1ccccc1` yielded a melting point of 119 to 123 °C.

`O=Cc1c(-c2ccc(Br)s2)nc2ccccn12` gave a melting point of 186 to 188 °C.

The compound `COC(=O)c1ccncc1O` displayed a melting point of 149 to 151 °C.

Turning to `NCc1c[nH]nn1`, the melting point fell in the range of 211 to 213 °C.

`O=c1ccc2c(Cl)ccc(Cl)c2[nH]1`: the melting point is 194 to 196 °C.

In turn, `Cc1nn(-c2ccccc2)c(C)c1SCC(=O)O` showed a melting point of 148 to 150 °C.

`O=c1c2sccc2nc(S)n1Cc1ccccc1`: the melting point was in the range of 249 to 251 °C.

Consider `N#Cc1cccc(-n2cccn2)c1`, for which the melting point was 61 to 63 °C.

`O=C(CCCl)N1CCN(c2ncccn2)CC1` came in with a melting point of 139 to 141 °C.

`Cn1ccnc1SCC(=O)Nc1cc(C(=O)O)ccc1Cl` gave a melting point of 223 to 225 °C.

In turn, `O=[N+]([O-])c1ccc(Cl)cc1CBr` showed a melting point of 61 to 63 °C.

In turn, `CC(Cl)C(=O)Nc1ncc(Cl)cc1Cl` (stereo not given) had a melting point of 113 to 115 °C.

`CC(C)CCS(=O)(=O)CC(=O)O` came in with a melting point of 61 to 63 °C.

On to `N#Cc1ccc(-c2cccs2)[nH]c1=O`, for which the melting point was 301 to 303 °C.

In turn, `CNC1CCN(c2cc(OC)cc(OC)c2)C1` (stereo not given) yielded a melting point of 52 to 54 °C.

`Cc1cc(Cl)c([N+](=O)[O-])cc1N` gave a melting point of 118 to 120 °C.

`O=C(O)c1ccc(CN2C(=O)CCC2=O)cc1` came in with a melting point of 229 to 231 °C.

`CCOC(=O)c1c(N)sc(C(=O)N(C)C)c1C` displayed a melting point of 118 to 122 °C.

For the compound `O=C(O)c1cc(/C=C/c2ccc(Cl)cc2)nc2ccc(Br)cc12`, the melting point lay in the range of 320 to 322 °C.

`NS(=O)(=O)CC1CCCN1` (stereo not given) returned a melting point of 72 to 74 °C.

Take `COc1ccccc1-c1ccccc1C(=O)O`: the melting point was 149 to 151 °C.

`O=C(O)CCS(=O)c1ccc2c(c1)OCCCO2` (stereo not given) had a melting point of 114 to 116 °C.

Turning to `CC(C#N)Oc1cc(F)ccc1N` (stereo not given), the melting point is 89 to 91 °C.

As for `O=C(O)c1cc2cccc(Cl)c2o1`, the melting point lay in the range of 243 to 245 °C.

Take `Cc1ccc(C2CC2C(=O)O)s1` (stereo not given): the melting point is 45 to 47 °C.

Take `Cc1noc(-c2ccccc2N)n1`: the melting point lay within 120 to 122 °C.

As to `O=[N+]([O-])c1cc(S(=O)(=O)Nc2ccccc2)ccc1Cl`, the melting point was 87 to 89 °C.

With `Cc1nc2ccccc2n1CCN`, the melting point lay in the range of 235 to 237 °C.

Turning to `Cc1ccc(-c2n[nH]cc2Br)cc1C`, the melting point fell in the range of 116 to 118 °C.

The compound `O=C(O)c1cccc(S(=O)(=O)Nc2ccc(Cl)cc2)c1` showed a melting point of 250 to 252 °C.

Compound `O=[N+]([O-])c1ccc(F)c([N+](=O)[O-])c1F` returned a melting point of 37 to 39 °C.

In turn, `CCN1N=C(C)CC1=O` yielded a melting point of 107 to 109 °C.

In turn, `CC1=NN(c2ccccc2)C(=O)C1=NO` displayed a melting point of 131 to 133 °C.

As for `Nc1ccc(-c2nc3ccccc3[nH]2)cc1`, the melting point was 218 to 222 °C.

With `CC1(C)NC(=O)N(CC(=O)O)C1=O`, the melting point was in the range of 167 to 169 °C.

`Oc1ccc(/C=C/c2ccc3ccccc3n2)cc1`: the melting point lay in the range of 289 to 291 °C.

Turning to `O=C(O)c1ccc(Oc2cccc(Br)c2)cc1`, the melting point was 151 to 153 °C.

`Brc1nn2cc(-c3ccccc3)nc2s1` displayed a melting point of 186 to 188 °C.

As to `O=C(Nc1ccsc1C(=O)O)c1ccoc1`, the melting point fell in the range of 207 to 209 °C.

For `O=S(=O)(NCCBr)c1ccccc1`, the melting point was 54 to 56 °C.

Compound `CN1CCN(c2ccc(N)cn2)CC1` returned a melting point of 109 to 111 °C.

The compound `COc1ccc(SCC(=O)O)cc1` showed a melting point of 77 to 79 °C.

As to `Cc1nn(C)c(=O)c(C(=O)N2CSCC2C(=O)O)c1C` (stereo not given), the melting point is 209 to 211 °C.

The compound `CC(C)CN1CC(C(=O)O)CC1=O` (stereo not given) yielded a melting point of 83 to 85 °C.

`CC(C)(C)OC(=O)Cc1cccc(N)c1` registered a melting point of 47 to 49 °C.

For the compound `CCc1ccccc1Nc1nc(N)nc(CCl)n1`, the melting point lay within 146 to 149 °C.

In the case of `COc1ccccc1CNC(=O)CCl`, the melting point lay within 94 to 96 °C.

With `O=C1COc2c(Cl)cccc2N1`, the melting point was 201 to 203 °C.

`O=C(O)c1ccc(-n2cccn2)nc1` gave a melting point of 267 to 269 °C.

The compound `N#Cc1cccnc1NCc1cccc(C(=O)O)c1` gave a melting point of 197 to 199 °C.

On to `O=C(O)CN1C(=O)c2ccc([N+](=O)[O-])cc2C1=O`, for which the melting point was in the range of 197 to 199 °C.

Regarding `COC(=O)C1CCN(c2nccc3sccc23)CC1`, the melting point lay in the range of 83 to 85 °C.

`NCc1ccc(NC(=O)CN2CCc3ccccc32)cc1` showed a melting point of 126 to 128 °C.

`Cc1nc(C(=O)O)c2ccccn12` showed a melting point of 187 to 189 °C.

In the case of `N#Cc1cccc(Cn2ccnc2)c1`, the melting point fell in the range of 65 to 67 °C.

`CCC(Nc1ccccc1)C(=O)O` (stereo not given) returned a melting point of 139 to 141 °C.

In the case of `Cc1[nH]c(=O)sc1C`, the melting point was 146 to 148 °C.

For `COc1ccc(C2(C(=O)O)CCOCC2)cc1`, the melting point is 167 to 169 °C.

Compound `O=C(O)c1nn(-c2ccccc2)cc1OC(F)F` came in with a melting point of 134 to 136 °C.

The compound `CCc1ccc(C(N)=NO)cc1` returned a melting point of 160 to 162 °C.

In the case of `O=C(O)CCS(=O)c1ccc2c(c1)OCCO2` (stereo not given), the melting point lay in the range of 110 to 112 °C.

`CCOC=C1C(=O)N(c2ccc(Cl)cn2)C(=O)c2ccccc21` registered a melting point of 200 to 202 °C.

As to `Nc1ncn(Cc2cccc(Br)c2)n1`, the melting point fell in the range of 147 to 149 °C.

`NC(=O)c1cccc(C(N)=S)c1` had a melting point of 210 to 212 °C.

Compound `N#Cc1cccc(NC(=O)CC2CC2)c1` displayed a melting point of 89 to 91 °C.

`O=C(CCl)Nc1cc(C(F)(F)F)ccc1N1CCOCC1` gave a melting point of 155 to 157 °C.

For the compound `Sc1cnnc2ccccc12`, the melting point was in the range of 80 to 82 °C.

Compound `CC(NC(=O)OC(C)(C)C)C1CCNCC1` (stereo not given) displayed a melting point of 103 to 105 °C.

In turn, `Clc1ccccc1-c1ncn[nH]1` came in with a melting point of 154 to 156 °C.

In turn, `CC(C)(C)OC(=O)NC(C(=O)O)C1CCCCC1` (stereo not given) yielded a melting point of 163 to 165 °C.

Compound `NC(C(=O)O)c1ccc(Br)cc1` (stereo not given) gave a melting point of 249 to 251 °C.

For the compound `O=C(O)CC1CCCN1Cc1nc2ccccc2c(=O)[nH]1` (stereo not given), the melting point fell in the range of 197 to 199 °C.

As to `O=C(CCl)N1CCSc2ccccc21`, the melting point was in the range of 53 to 55 °C.

Regarding `Clc1nc(-c2ccccn2)nc2c1CCC2`, the melting point was in the range of 142 to 144 °C.

The compound `CC(C)OC(=O)N1CCC(C(=O)O)(C(F)(F)F)C1` (stereo not given) returned a melting point of 98 to 100 °C.

With `ClCc1cc(Cl)c2c(c1)OCCCO2`, the melting point fell in the range of 59 to 63 °C.

`N#Cc1ccccc1S(N)(=O)=O`: the melting point was in the range of 306 to 308 °C.

Take `O=C(O)c1cccc(S(=O)(=O)Nc2ccc(F)cc2)c1`: the melting point lay in the range of 140 to 142 °C.

As for `CC(NCc1ccc(F)cc1)C(=O)O` (stereo not given), the melting point fell in the range of 283 to 285 °C.

For `Clc1ncnc2ccc(I)cc12`, the melting point lay in the range of 173 to 175 °C.

For the compound `COc1ccc(-n2c(C)cc(C=O)c2C)cc1`, the melting point was in the range of 133 to 135 °C.

Compound `COc1ccc2[nH]cc(C3=CCNCC3)c2c1` registered a melting point of 181 to 183 °C.

In turn, `Oc1cccc(CNC2CCC(O)CC2)c1` (stereo not given) showed a melting point of 180 to 182 °C.

Take `COc1ccc(C(CNC(=O)CCl)c2c[nH]c3ccccc23)cc1` (stereo not given): the melting point lay in the range of 157 to 159 °C.

In the case of `c1ccc(-c2nnco2)nc1`, the melting point was 224 to 226 °C.

In the case of `CC(C)C(NC(=O)Nc1ccccc1)C(=O)O` (stereo not given), the melting point was 140 to 142 °C.

`O=C(O)c1ccc(S)cc1Cl`: the melting point lay in the range of 184 to 186 °C.

`OCc1nnc(S)n1C1CC1` had a melting point of 154 to 156 °C.

In turn, `Nc1cc(Cl)cc(Br)c1OC(F)F` came in with a melting point of 86 to 88 °C.

For the compound `CC1Oc2ccccc2NC1=O` (stereo not given), the melting point fell in the range of 142 to 144 °C.

`CC1=NOC(=O)C1CC(=O)O` (stereo not given) showed a melting point of 149 to 151 °C.

As to `NC1CCN(c2ccc(Cl)c(F)c2)C1=O` (stereo not given), the melting point fell in the range of 69 to 71 °C.

In the case of `COc1ccc(C(=O)Oc2ccc(C=O)cc2OC)cc1`, the melting point lay within 95 to 98 °C.

`CCN(CC(=O)O)S(=O)(=O)c1cccnc1Cl`: the melting point lay in the range of 156 to 158 °C.

Compound `Cc1ccccc1CC(=O)NN` had a melting point of 129 to 131 °C.
